Target: Voltage-dependent L-type calcium channel subunit alpha-1C (Cavia porcellus, UniProt O35505)
Test: Antagonist activity at calcium channel in Cavia porcellus (guinea pig) ileum assessed as inhibition of KCl-induced muscle contraction at 10 mM; call rule not given here
Assay type: tissue-based

Voltage-dependent L-type calcium channel subunit alpha-1C, sequence (O35505 whole entry): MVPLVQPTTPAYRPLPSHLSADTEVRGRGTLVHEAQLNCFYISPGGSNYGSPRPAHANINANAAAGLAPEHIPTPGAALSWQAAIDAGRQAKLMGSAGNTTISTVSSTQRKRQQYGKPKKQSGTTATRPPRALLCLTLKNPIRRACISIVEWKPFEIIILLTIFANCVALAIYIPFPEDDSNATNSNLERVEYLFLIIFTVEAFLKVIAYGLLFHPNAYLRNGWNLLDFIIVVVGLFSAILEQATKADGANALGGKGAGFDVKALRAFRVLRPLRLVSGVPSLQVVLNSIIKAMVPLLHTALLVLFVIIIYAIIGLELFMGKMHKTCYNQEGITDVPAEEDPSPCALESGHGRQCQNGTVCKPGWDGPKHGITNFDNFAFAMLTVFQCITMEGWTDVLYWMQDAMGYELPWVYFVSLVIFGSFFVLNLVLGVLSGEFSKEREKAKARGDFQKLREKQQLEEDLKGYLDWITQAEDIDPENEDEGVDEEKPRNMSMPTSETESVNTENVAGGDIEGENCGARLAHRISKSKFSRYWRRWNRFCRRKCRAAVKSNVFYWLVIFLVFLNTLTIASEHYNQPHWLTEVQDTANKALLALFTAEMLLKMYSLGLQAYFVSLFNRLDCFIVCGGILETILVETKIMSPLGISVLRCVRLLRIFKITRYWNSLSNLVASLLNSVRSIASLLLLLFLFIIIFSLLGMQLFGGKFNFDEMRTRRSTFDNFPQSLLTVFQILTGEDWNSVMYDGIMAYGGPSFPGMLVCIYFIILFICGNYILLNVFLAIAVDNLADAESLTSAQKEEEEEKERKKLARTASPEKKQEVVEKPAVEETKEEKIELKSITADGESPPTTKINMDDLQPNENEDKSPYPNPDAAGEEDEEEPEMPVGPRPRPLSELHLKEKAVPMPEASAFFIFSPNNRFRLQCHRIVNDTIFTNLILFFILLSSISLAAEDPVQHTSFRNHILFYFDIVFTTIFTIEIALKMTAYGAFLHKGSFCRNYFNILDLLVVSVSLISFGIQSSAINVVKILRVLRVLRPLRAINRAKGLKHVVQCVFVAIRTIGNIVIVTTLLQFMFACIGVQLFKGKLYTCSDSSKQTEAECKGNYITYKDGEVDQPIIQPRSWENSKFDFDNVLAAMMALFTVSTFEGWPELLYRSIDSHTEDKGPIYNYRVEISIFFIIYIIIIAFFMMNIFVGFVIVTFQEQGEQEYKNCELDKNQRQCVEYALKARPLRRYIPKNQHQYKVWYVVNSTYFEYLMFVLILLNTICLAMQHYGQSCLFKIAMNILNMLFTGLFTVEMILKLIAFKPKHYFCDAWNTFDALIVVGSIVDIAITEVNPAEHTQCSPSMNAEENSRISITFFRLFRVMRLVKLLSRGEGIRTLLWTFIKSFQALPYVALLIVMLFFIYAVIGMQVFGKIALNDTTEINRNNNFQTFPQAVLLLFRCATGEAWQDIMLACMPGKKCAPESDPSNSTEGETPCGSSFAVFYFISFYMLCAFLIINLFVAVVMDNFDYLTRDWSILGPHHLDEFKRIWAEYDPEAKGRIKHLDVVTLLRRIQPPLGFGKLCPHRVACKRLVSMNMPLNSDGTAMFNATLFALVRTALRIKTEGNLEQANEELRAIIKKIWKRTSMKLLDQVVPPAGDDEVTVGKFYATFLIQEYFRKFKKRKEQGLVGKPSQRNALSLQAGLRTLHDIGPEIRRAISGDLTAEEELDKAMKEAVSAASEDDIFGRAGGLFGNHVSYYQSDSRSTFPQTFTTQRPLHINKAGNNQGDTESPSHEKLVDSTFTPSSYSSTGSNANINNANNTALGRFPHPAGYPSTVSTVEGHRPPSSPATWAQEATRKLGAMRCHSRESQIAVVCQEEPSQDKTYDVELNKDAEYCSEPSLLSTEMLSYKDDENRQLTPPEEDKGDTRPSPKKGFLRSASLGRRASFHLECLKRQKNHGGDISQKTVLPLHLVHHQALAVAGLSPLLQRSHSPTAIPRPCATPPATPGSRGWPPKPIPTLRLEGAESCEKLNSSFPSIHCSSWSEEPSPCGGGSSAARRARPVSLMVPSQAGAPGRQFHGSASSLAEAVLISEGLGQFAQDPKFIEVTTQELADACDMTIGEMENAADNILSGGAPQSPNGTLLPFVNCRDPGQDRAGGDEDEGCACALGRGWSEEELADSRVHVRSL

COC(=O)C1=C(C)NC(C)=C(C(=O)OC)C1c1ccccc1[N+](=O)[O-] [NIFEDIPINE]
inhibition (INH): Active
